How the values were obtained:
HCT-116 cells = test: DNA damage markers, immunoblot; type: cell-based; conditions: cell cycle arrest observed
Method: Treatment with b-AP15 increased their levels in a dose dependent manner without altering the levels of ornithine decarboxylase 1 (ODC1), an ubiquitin-independent proteasome substrate (8).
HCT-116 cells were treated with b-AP15 or doxorubicin (100 nM, as a positive control for genotoxic stress for 18 h) (FIG. 5). Cell lysates were immuno-blotted with antibodies for phosphorylated p53 and histone H2 Ax marker for DNA damage of for total levels of p53 and β-actin as loading controls.

MCF7 cells = test: Microarray based gene expression analysis, chaperone genes; type: cell-based; design: key to Expression value HSPA4L / Expression value DNAJB1 / Expression value HSPD1 / Expression value DNAJB4 / Expression value HSPA1B / Expression value HSPH1 / Expression value HSPA4 / Expression value DNAJB9 / Expression value DNAJA1 / Expression value HSPA1A / Expression value HSPA6 / Expression value DNAJA4: MAS5-normalized array expression, arbitrary units
Method: The microarray based gene expression analysis and the Connectivity Map (CMAP) analysis was performed as previously described (40). Briefly, MCF7 cells were exposed to b-AP15 (1 μM, 6 h) or vehicle (0.1% DMSO, 6 h). RNA was isolated (RNeasy miniprep kit, Qiagen) followed by quality control, labelling and hybridization to Genome U133 Plus 2.0 arrays (Affymetrix Inc). Raw data was normalized using MasS (Affymetrix Inc.) and rank ordered. For selection of the 30 most induced (up tags) and the 30 most suppressed (down tags) transcripts the following criteria were used: Up tags, present call and expression over 300 arbitrary in the b-AP15 experiment; Down tags, present call after both b-AP15 and vehicle treatment, and expression over 300 arbitrary units in the vehicle experiment. For CMAP compatibility only tags (i.e. probes) present on HG U133A were used. Raw and normalized expression data have been deposited at Gene Expression Omnibus (http://www.ncbi.nlm. nih.gov/geo/) with accession number GSE24150.
Expression of chaperone genes observed in bAP15-treated cells (Table 1) is indicative of induction of a proteotoxic response.

[1] = tested on: orthotopic breast carcinomas (4T1); test: Orthotopic breast carcinoma (4T1) model; type: in vivo, BALB/c mice; conditions: 2.5 mg/kg i.p., 1 day on/3 days off

C=CC(=O)N1C/C(=C\c2ccc([N+](=O)[O-])cc2)C(=O)/C(=C/c2ccc([N+](=O)[O-])cc2)C1 [b-AP15, (3E,5E)-3,5-bis[(4-nitrophenyl)methylidene]-1-(prop-2-enoyl)piperidin-4-one]
DNA damage markers phosphorylated p53 (Ser 15), H2AX (Ser 139) (HCT-116 cells): not associated with increased levels of DNA damage markers
Expression value HSPA6 (MCF7 cells; probe set 117_at, MCF7 cells, 1 μM, 6 h): 24149
Expression value DNAJB1 (MCF7 cells; probe set 200666_s_at, MCF7 cells, 1 μM, 6 h): 33900
Fold change DNAJB1 (MCF7 cells; probe set 200666_s_at, b-AP15 vs vehicle): 6
Expression value HSPA1A (MCF7 cells; probe set 200800_s_at, MCF7 cells, 1 μM, 6 h): 57478
Fold change HSPA1A (MCF7 cells; probe set 200800_s_at, b-AP15 vs vehicle): 4
Expression value DNAJA1 (MCF7 cells; probe set 200880_at, MCF7 cells, 1 μM, 6 h): 19970
Fold change DNAJA1 (MCF7 cells; probe set 200880_at, b-AP15 vs vehicle): 4
Expression value HSPA1B (MCF7 cells; probe set 202581_at, MCF7 cells, 1 μM, 6 h): 31068
Fold change HSPA1B (MCF7 cells; probe set 202581_at, b-AP15 vs vehicle): 5
Expression value DNAJB9 (MCF7 cells; probe set 202843_at, MCF7 cells, 1 μM, 6 h): 1879
Fold change DNAJB9 (MCF7 cells; probe set 202843_at, b-AP15 vs vehicle): 4
Expression value DNAJB4 (MCF7 cells; probe set 203810_at, MCF7 cells, 1 μM, 6 h): 1955
Expression value DNAJB4 (MCF7 cells; probe set 203811_s_at, MCF7 cells, 1 μM, 6 h): 960
Fold change DNAJB4 (MCF7 cells; probe set 203811_s_at, b-AP15 vs vehicle): 5
Expression value HSPA4L (MCF7 cells; probe set 205543_at, MCF7 cells, 1 μM, 6 h): 5452
Expression value HSPH1 (MCF7 cells; probe set 206976_s_at, MCF7 cells, 1 μM, 6 h): 40974
Fold change HSPH1 (MCF7 cells; probe set 206976_s_at, b-AP15 vs vehicle): 5
Expression value HSPA4 (MCF7 cells; probe set 211016_x_at, MCF7 cells, 1 μM, 6 h): 1803
Fold change HSPA4 (MCF7 cells; probe set 211016_x_at, b-AP15 vs vehicle): 4
Expression value DNAJA4 (MCF7 cells; probe set 225061_at, MCF7 cells, 1 μM, 6 h): 21103
Fold change DNAJA4 (MCF7 cells; probe set 225061_at, b-AP15 vs vehicle): 30
Expression value HSPD1 (MCF7 cells; probe set 241716_at, MCF7 cells, 1 μM, 6 h): 487
Fold change HSPD1 (MCF7 cells; probe set 241716_at, b-AP15 vs vehicle): 6
difference in weight at the start and the endpoint between control and treated animals [1]: +5.8%

— patent US20130079370A1, “Method for the Inhibition of Deubiquitinating Activity” (priority 2011, published 2013)
